According to patent publication US9498035B2, “Silicone hydrogel contact lenses for sustained release of beneficial polymers” (CooperVision International Holding Company, LP, priority 2012, dated 2016):

How the values were obtained:
[1] = Release of αPLL of varying molecular weight from Formulation C lenses; format: physicochemical; settings: for release between the 6 hour and 24 hour time points (in words): hydrobromide
Procedure: Lenses of Formulations B-E prepared according to Example 1 were used in this study. The lenses were immersed in 1.2 ml of 500 ppm εPLL in PBS for 48 hours as described in Example 3. Excess solution was removed from each lens by gently blotting with an absorbent tissue. Each lens was immersed in 1 ml of ISO 10344 standard saline solution (0.83% sodium chloride, 0.0467% sodium phosphate monobasic, and 0.4486% sodium phosphate dibasic) in a well of a 12-well plate and covered. The plates were shaken at 100 rpm at 37±2° C. At 2, 4, 6, 8, 12, and 24 hours, the solution was removed from each well and replaced with 1 ml of fresh ISO 10344 standard saline solution. HPLC was used to determine the amount of εPLL released from each lens.
Polymer release was tested substantially as described in Example 4, except that the time points tested were at 2, 6, and 24 hr.

[2] = Uptake of αPLL of varying molecular weight by Formulation C lenses; format: physicochemical; settings: 1.8 ml 500 ppm αPLL in PBS, autoclave and overnight storage at room temperature, hydrobromide
Procedure: Solutions of 500 ppm poly-L-lysine hydrobromide (CAS No. 25988-63-0) (αPLL) with varying molecular weight ranges were prepared in PBS. Lenses of Formulation C prepared as described in Example 1 were packaged with 1.8 ml of each solution and autoclaved. After autoclave and overnight storage at room temperature uptake of αPLL was measured.

Substance	duration of sustained release (in words) [1]	release between the 6 hour and 24 hour time points (in words) [1]	uptake [2]	release of polymer detected (in words) ([1]; time points 2, 6, and 24 hr)
poly-L-lysine hydrobromide [Formulation 1K-5K]	sustained for at least two hours	no significant release	142 μg/lens	
poly-L-lysine hydrobromide [Formulation 4K-15K]		significant release	400 μg/lens	
poly-L-lysine hydrobromide [Formulation 15K-30K]		significant release	414 μg/lens	
poly-L-lysine hydrobromide [Formulation 30K-70K]			299 μg/lens	
poly-L-lysine hydrobromide [Formulation 70K-150K]			185 μg/lens	No significant release
poly-L-lysine hydrobromide [Formulation 500-2K]	sustained for at least two hours	no significant release	122 μg/lens	
